What was measured:
Type in all cases: cell-based
[1] = biological target: T1, human EGFR exon 20 H773_V774insNPH (Homo sapiens, UniProt P00533, INS773NPH); test: EGFR Exon20 NPH insertion cellular phosphorylation inhibition (MSD pEGFR Y1068/total EGFR); settings: Ba/F3 EGFR NPH ins cells, 4 h compound, p-EGFR(Y1068)/total EGFR;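 further: IL3-independent Ba/F3 cells with constitutively phosphorylated EGFR, compound exposure at 37 °C under 5% CO2, electrochemiluminescent MSD measurement of the p-EGFR to total EGFR ratio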
T1 construct: host or cells: Ba/F3

[2] = biological target: T2, human EGFR exon 20 V769_D770insASV (Homo sapiens, UniProt P00533, INS769ASV); test: EGFR Exon20 ASV insertion cellular phosphorylation inhibition (MSD pEGFR Y1068/total EGFR); settings: Ba/F3 EGFR ASV ins cells, 4 h compound, p-EGFR(Y1068)/total EGFR;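 further: electrochemiluminescent readout on an MSD SECTOR Imager, IL3-independent transduced cells in medium with 1% FBS, compound concentration series at 37 °C and 5% CO2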
T2 construct: expressed in transfected cells; host or cells: Ba/F3 (DSMZ ACC-300), lentiviral transduction, puromycin selection, IL3 depletion

EGFR L858R&T790M = biological target: T3, EGFR L858R&T790M (Homo sapiens, UniProt P00533, L858R/T790M); test: EGFR L858R and T790M cellular phosphorylation inhibition in NCI-H1975 (MSD); settings: NCI-H1975 cells, 4 h compound, p-EGFR(Y1068)/total EGFR; read-out: EGFR L858R and T790M mutation IC50;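 further: phosphorylated and total EGFR detected by electrochemiluminescence, cells exposed to compound in medium containing 1% FBS at 37 °C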
T3 construct: host or cells: NCI-H1975

[3] = biological target: T4, human Her2 exon 20 insertion mutation YVMA (Homo sapiens, UniProt P04626, INS775YVMA); test: Her2 Exon 20 YVMA insertion cellular phosphorylation inhibition (MSD p-Her2 Y1248/total Her2); settings: Her2 YVMAins cells, 4 h compound;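 further: lentivirally transduced NIH-3T3 cells in 1% FBS medium, electrochemiluminescent MSD read-out, graded compound concentrations at 37 °C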
T4 construct: expressed in transfected cells; host or cells: NIH-3T3, lentiviral transduction, puromycin selection

WT EGFR = biological target: T5, WT EGFR (Homo sapiens, UniProt P00533); test: WT EGFR cellular phosphorylation inhibition in A-431 (hEGF stimulated, MSD); settings: A431 cells, 4 h compound, then 100 ng/ml hEGF 10 min;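 further: electrochemiluminescence read-out of EGFR Tyr1068 phosphorylation expressed as ratio to total EGFR, cells kept in medium with 1% FBS, compounds tested as a concentration series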
T5 construct: host or cells: A-431
Experimental: One day before the test, WT or mutant cells were seeded in 96 well plates at appropriate concentrations with corresponding growth media supplemented with 1% FBS, and incubated overnight. The next day, tested compounds at a series of concentrations were added into each individual well of the plates, and the plates were incubated for 4 h at 37° C. with 5% CO2.
The EGFR (Y1068) phosphorylation level (activity) of cells in each well were then measured with MSD kit named “MULTI-SPOT®96 4-Spot HB Prototype EGFR Triplex [sequence]: pEGFR(Tyr1068),pEGFR(Tyr1173), Total EGFR” according to the manufacturer’s instruction (MESO SCALE DISCOVERY, Cat# N45ZB-1). The assay is an electrochemiluminescent method for determining both phosphorylated and total EGFR of cells with an MSD SECTOR® Imager and the ratio of p-EGFR/total EGFR can be generated by the machine. The Her2 (Y1248) phosphorylation level (activity) of cells in each well were measured with MSD Kit named “Phospho-ErbB2 (Tyr1248) Assay Whole Cell Lysate Kit” according to the manufacturer’s instruction (MESO SCALE DISCOVERY, Cat# K151CLD-3). The assay is an electrochemiluminescent method (MESO SCALE DISCOVERY) for determining both phosphorylated and total Her2 of cells with an MSD SECTOR® Imager and then the ratio of p-Her2/total Her2 can be generated by the machine.

Ba/F3 EGFR NPH ins cells = test: Cell proliferation, Ba/F3 EGFR NPH ins (CellTiter-Glo, 72 h); settings: Ba/F3 EGFR, 72 h, Ba/F3 EGFR NPH ins, 72 h proliferation; read-out: EGFR Exon20 NPH insertion GI50;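 further: IL3-independent cells carrying constitutively phosphorylated EGFR, compound dilution series, viable cells quantified by ATP luminescence, growth relative to DMSO wells after subtracting pre-dosing (day 0) baseline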
Ba/F3 EGFR ASV ins cells = test: Cell proliferation, Ba/F3 EGFR ASV ins (CellTiter-Glo, 72 h); settings: Ba/F3 EGFR, 72 h, Ba/F3 EGFR ASV ins, 72 h proliferation; read-out: EGFR Exon20 ASV insertion GI50;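 further: IL3-independent Ba/F3 cells transduced with EGFR V769_D770insASV, cellular ATP luminescence after compound exposure, growth relative to DMSO control with the day-0 baseline reading subtracted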
Experimental: WT or mutant cells were seeded in 384 well plates at appropriate concentrations with corresponding growth media supplemented with 10% FBS, for each experiment, identical plates were prepared in duplicates, and the plates were incubated overnight. On the next day, one of each duplicated plates was dosed with tested compounds at a series of concentrations, and another one of the duplicated plate was analysied for G0 value. The dosed plates were incubate for another 72 h at 37° C. with 5% CO2 and the number of viable cells in each well of the G0 plates or the dosed plates were measured by CellTiter-Glo® Luminescent Cell Viability Assay (Promega). This assay is a luminescent method for determining the number viable cells through measurement of cellular ATP concentration by detection of luciferase activity. Detection reagents (15 µl) was dispensed into per well, and the plates were incubate for 30 min at room temperature. Then, the luminescence in each well was measured using the Envision plate reader (PerkinElmer). The percentage of proliferation was calculated based on the formula: %Proliferation= 100 × (G3 value of sample well-Go value)/(G3 value of DMSO control-Go value).

[4] = test system: NCI-H1975 EGFR L858R/T790M cells; test: Cell proliferation, NCI-H1975 EGFR L858R/T790M (CellTiter-Glo, 72 h); settings: Homo sapiens, NCI-H1975, 72 h, NCI-H1975, 72 h proliferation; read-out: EGFR L858R and T790M mutation GI50;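 further: viable cells quantified by luciferase-based ATP luminescence, proliferation expressed relative to DMSO-treated wells (100%) after subtracting a parallel plate read at the time of dosing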
[5] = test system: Her2 exon 20 insertion YVMA transduced NIH-3T3 cell line; test: Cell proliferation, Her2 YVMAins NIH-3T3 (CellTiter-Glo, 72 h); settings: Mus musculus, NIH3T3, 72 h, Her2 YVMAins cells, 72 h proliferation; read-out: Her2 Exon 20 YVMA insertion GI50;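 further: viable cells quantified by ATP luminescence, growth over a day-zero baseline plate expressed as percent of DMSO control growth, compound dilution series in 10% FBS medium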
WT EGFR cell line A-431 = test: Cell proliferation, WT EGFR A431 (CellTiter-Glo, 72 h); settings: Homo sapiens, A-431, 72 h, A431, 72 h proliferation; read-out: EGFR WT A431 GI50;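 further: proliferation from a luminescent ATP viability signal, expressed as 100 × (treated minus time-zero plate) over (DMSO control minus time-zero plate), cells grown with 10% FBS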
OCI-LY-10 cells = test: BTK (wt) cell proliferation, OCI-LY-10 (CellTiter-Glo, 72 h); settings: Homo sapiens, OCI-Ly10, 72 h, OCI-LY-10 cells, 72 h, CellTiter-Glo; read-out: BTK WT OCI-LY-10 GI50;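 further: viable cells quantified via cellular ATP luminescence, proliferation given as percent of DMSO control after subtracting a duplicate plate read at time of dosing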
TMD-8 cells = test: BTK (wt) cell proliferation, TMD-8 (CellTiter-Glo, 72 h); settings: Homo sapiens, TMD8, 72 h, TMD-8 cells, 72 h, CellTiter-Glo; read-out: BTK WT TMD-8 GI50;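 further: viable cells quantified by ATP-based luminescence, proliferation expressed as percent of DMSO control after subtracting a time-zero baseline plate read at dosing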
Ri-1 cells = test: BTK (wt) cell proliferation, Ri-1 (CellTiter-Glo, 72 h); settings: Ri-1, 72 h, Ri-1 cells, 72 h, CellTiter-Glo; read-out: BTK WT Ri-1 GI50;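 further: viable cells quantified as cellular ATP luminescence, proliferation normalized to a time-zero plate and the DMSO control, compounds tested across a dilution series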
Experimental: OCI-LY-10 at 3,750 cells/well, TMD-8 and Ri-1 at 2,000 cells/well, and DB at 1,250 cells/well, respectively, were sorted into 384-well plates in RPMI1640 medium with 10% FBS. After overnight incubation, all cells were incubated with compound at a series of concentrations. Meanwhile, a duplicated plate of each cell line was prepared for measuring G0 value. The dosed plates were further incubated for 72 hours and the number of viable cells was measured by CellTiter-Glo® Luminescent Cell Viability Assay (Promega), a luminescent method for determining the number of viable cells through measurement of cellular ATP concentration using Envision plate reader (PerkinElmer). The percentage of proliferation was calculated as: % Proliferation = 100 × (G3 value of sample well - G0 value)/(G3 value of DMSO control - G0 value).

DB cells = test: BTK (wt) cell proliferation, DB (CellTiter-Glo, 72 h); settings: Homo sapiens, DB, DB cells, CellTiter-Glo, read-out: Non-BCR activated DB GI50;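 further: DB cells in 384-well plates given a dilution series of compound, viable cells read by ATP luminescence, growth expressed versus DMSO control after subtracting a time-zero plate reading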
Phospho-BTK (Tyr223) = biological target: T6, Phospho-BTK (Tyr223) (Homo sapiens, UniProt Q06187); test: p-BTK assay in Ramos cells (HTRF Phospho-BTK Tyr223); settings: pervanadate stimulated, read-out: p-BTK (Romas) IC50
T6 construct: endogenous in cells; host or cells: Ramos
Experimental: The assay plates were then incubated for 30 minutes at 37° C., 5% CO2. 300 uM Per vanadate (3X) was added to each well and the assay plates were again incubated for 60 minutes at 37° C., 5% CO2. Phospho-BTK (Tyr223) is detected using the HTRF® reagents (Cisbio) according to the manufacturer’s one-plate assay protocol.

BTK [6] = biological target: T7, BTK (Homo sapiens, UniProt Q06187); test: BTK target site occupancy ELISA (PBMC); settings: BTK receptor occupancy
Experimental: (§1) An enzyme-linked immunosorbent assay (ELISA) method for the detection of free uninhibited Btk in mouse and human lysates. Human or mouse whole blood were incubated with compound for 2 hour at 37° C. Whole blood were lysed in ice-cold lysis buffer containing 50 mM Tris-HCl, pH 7.5, 150 mM NaCl, 1 mM EDTA,1% Triton X-100. […] Samples were transferred to a streptavidin-coated 96-well ELISA plate and mixed while shaking for 1 hour at room temperature. The α-Btk antibody (1:500; clone number D3H5, Cell signaling Technology, Danvers, MA, USA) was then added to the well and incubated for 1 hour at room temperature. After wash, goat α-rabbit-FW (1:5000 dilution in PBS+ 0.05% Tween-20 + 1% BSA) was added to each well and incubated for 1 h at room temperature. The ELISA was developed with addition of tetramethyl benzidine (TMB) followed by Stop Solution and read at OD 450 nm.

BTK [7] = biological target: T7, BTK; test: BTK target site occupancy ELISA (Ramos); parameters: endogenous in cells; host or cells: Ramos; settings: BTK receptor occupancy, read-out: Occupancy (Romas) IC50
Experimental: as §1

T1 sequence (P00533 with tags, fused parts or gaps INS773NPH): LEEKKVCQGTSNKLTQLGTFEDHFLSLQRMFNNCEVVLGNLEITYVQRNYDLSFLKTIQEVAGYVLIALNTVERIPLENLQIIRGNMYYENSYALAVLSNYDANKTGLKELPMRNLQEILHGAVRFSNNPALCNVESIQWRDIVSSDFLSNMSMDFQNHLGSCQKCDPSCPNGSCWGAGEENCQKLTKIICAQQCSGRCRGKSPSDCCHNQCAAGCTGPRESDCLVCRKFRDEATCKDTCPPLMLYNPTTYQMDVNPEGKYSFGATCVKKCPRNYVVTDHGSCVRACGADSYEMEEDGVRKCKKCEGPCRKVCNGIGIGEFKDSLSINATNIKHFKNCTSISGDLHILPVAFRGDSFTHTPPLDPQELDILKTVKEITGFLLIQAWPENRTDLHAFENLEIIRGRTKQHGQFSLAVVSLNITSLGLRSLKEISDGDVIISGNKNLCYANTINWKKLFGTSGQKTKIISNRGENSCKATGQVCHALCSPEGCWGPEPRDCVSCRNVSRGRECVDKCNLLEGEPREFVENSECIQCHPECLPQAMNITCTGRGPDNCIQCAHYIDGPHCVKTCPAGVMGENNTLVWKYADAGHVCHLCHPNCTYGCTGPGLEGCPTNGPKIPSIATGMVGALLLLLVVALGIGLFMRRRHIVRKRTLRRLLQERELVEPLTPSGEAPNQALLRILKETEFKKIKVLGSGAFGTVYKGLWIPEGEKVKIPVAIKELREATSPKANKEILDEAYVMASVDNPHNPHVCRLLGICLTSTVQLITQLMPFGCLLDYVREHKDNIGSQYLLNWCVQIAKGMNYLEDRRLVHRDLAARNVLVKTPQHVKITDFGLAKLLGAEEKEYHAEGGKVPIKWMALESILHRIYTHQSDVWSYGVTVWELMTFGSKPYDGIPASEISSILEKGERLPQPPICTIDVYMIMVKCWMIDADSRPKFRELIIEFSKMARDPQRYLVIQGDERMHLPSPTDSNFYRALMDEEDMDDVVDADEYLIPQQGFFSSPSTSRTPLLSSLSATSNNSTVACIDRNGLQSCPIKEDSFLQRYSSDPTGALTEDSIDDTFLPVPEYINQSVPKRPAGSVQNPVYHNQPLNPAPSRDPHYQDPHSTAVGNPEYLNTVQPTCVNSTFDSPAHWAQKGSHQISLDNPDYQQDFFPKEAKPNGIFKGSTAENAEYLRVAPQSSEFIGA
T7 sequence (Q06187 whole entry): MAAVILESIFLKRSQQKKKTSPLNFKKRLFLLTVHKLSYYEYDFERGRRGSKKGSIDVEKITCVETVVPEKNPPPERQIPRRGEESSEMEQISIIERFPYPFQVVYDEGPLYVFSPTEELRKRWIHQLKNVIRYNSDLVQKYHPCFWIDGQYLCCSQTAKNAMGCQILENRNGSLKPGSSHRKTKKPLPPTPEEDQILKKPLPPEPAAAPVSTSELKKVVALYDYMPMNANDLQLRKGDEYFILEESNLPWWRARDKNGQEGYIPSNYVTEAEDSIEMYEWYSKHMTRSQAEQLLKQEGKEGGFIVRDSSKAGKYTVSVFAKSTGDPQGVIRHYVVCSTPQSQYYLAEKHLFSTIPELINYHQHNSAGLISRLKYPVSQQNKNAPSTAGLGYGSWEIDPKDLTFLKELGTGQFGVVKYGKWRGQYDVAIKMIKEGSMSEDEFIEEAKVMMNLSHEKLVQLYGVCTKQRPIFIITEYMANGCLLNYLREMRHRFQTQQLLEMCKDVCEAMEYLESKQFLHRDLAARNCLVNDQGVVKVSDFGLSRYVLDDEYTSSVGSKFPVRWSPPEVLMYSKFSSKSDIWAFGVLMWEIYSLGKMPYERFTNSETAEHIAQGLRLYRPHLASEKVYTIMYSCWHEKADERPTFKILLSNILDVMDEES
T6 sequence (Q06187 whole entry): as above
T3 sequence (P00533 25-1210 T790M/L858R): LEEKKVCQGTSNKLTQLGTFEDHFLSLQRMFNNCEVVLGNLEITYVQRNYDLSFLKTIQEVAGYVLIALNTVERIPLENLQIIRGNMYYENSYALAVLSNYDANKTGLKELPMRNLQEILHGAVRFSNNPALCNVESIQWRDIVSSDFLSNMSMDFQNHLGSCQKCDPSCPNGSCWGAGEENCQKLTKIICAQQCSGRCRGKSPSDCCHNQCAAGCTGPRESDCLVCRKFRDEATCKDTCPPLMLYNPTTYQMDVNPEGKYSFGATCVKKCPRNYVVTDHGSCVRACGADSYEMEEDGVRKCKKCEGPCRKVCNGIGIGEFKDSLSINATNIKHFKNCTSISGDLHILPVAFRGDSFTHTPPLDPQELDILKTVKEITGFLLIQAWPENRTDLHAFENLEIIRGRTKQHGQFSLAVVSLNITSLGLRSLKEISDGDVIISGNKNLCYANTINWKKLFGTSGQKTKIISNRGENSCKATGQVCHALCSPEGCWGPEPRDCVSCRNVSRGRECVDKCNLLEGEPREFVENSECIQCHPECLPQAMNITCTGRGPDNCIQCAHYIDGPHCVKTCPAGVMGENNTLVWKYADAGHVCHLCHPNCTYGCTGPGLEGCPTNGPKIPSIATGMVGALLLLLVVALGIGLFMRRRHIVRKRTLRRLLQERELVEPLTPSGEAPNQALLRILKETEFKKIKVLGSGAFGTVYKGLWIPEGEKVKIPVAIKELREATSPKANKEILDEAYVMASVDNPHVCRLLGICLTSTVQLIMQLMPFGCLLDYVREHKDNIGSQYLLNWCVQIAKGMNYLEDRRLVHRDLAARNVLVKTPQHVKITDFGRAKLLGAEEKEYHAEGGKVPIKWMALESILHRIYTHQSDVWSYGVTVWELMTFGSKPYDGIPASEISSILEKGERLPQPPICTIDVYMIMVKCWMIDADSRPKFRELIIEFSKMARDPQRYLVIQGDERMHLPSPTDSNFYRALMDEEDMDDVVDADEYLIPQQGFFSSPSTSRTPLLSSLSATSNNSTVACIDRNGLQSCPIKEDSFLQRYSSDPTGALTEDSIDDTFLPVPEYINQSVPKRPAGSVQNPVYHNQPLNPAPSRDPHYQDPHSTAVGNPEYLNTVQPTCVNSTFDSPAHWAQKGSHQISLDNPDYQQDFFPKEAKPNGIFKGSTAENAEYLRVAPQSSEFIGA
T2 sequence (P00533 with tags, fused parts or gaps INS769ASV): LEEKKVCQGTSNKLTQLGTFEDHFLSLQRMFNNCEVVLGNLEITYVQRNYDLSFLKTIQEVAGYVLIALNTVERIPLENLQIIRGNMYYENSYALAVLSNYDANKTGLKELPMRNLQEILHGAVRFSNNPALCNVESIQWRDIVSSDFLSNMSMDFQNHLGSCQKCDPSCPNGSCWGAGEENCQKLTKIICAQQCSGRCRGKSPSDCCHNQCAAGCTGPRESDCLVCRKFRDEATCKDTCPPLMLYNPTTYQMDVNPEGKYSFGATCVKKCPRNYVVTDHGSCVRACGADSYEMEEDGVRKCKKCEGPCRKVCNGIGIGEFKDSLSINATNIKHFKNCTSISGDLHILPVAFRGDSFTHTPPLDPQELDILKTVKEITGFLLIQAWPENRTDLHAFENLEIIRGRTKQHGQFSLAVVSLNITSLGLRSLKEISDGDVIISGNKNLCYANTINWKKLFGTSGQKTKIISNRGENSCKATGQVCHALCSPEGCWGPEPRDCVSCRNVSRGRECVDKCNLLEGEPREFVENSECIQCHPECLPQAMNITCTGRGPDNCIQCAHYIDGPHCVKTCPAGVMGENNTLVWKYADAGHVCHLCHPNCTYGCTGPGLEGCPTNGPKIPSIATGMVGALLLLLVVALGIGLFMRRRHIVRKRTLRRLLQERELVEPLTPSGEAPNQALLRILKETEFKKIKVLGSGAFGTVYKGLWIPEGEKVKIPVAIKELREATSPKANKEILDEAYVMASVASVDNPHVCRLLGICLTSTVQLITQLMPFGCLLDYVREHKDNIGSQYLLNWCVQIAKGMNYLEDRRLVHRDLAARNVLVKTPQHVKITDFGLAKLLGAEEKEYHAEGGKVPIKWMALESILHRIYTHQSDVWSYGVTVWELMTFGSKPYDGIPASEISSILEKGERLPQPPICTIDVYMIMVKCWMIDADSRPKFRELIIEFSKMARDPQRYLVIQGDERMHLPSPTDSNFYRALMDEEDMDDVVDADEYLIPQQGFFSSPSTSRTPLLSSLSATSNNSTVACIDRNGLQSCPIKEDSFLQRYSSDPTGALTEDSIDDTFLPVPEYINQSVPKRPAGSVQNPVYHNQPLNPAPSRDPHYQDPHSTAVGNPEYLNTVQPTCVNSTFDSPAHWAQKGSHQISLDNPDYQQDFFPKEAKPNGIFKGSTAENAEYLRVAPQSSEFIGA

Row | SMILES | IC50 [1] [nM] | IC50 [2] [nM] | IC50 (EGFR L858R&T790M) [nM] | IC50 [3] [nM] | IC50 (WT EGFR) [nM] | GI50 (Ba/F3 EGFR NPH ins cells) [nM] | GI50 (Ba/F3 EGFR ASV ins cells) [nM] | GI50 [4] [nM] | GI50 [5] [nM] | GI50 (WT EGFR cell line A-431) [nM] | GI50 (OCI-LY-10 cells) [nM] | GI50 (TMD-8 cells) [nM] | GI50 (Ri-1 cells) [nM] | GI50 (DB cells) [nM] | IC50 (Phospho-BTK (Tyr223)) [nM] | IC50 (BTK [6]) [nM] | IC50 (BTK [7]) [nM]
1 | C=CC(=O)Nc1cc(Nc2ncnc(Nc3cc(F)c(F)cc3C(C)(C)O)n2)c(OC)cc1N1CC(CN(C)C)C1 [Compound 23, N-(5-(4-(4,5-difluoro-2-(2-hydroxypropan-2-yl)phenylamino)-1,3,5-triazin-2-ylamino)-2-(3-((dimethylamino)methyl)azetidin-1-yl)-4-methoxyphenyl)acr ylamide] | 321 | 87.6 | 1.3 | 52.7 | 101 | 224 | 159 | 34.7 | 271 | 76.8 | 1.49 | 3.93 | 3.71 | > 3000 | 1.6 | 1.1 | 1.1
2 | C=CC(=O)Nc1cc(Nc2ncnc(Nc3cc(Cl)c(F)cc3C(C)(C)O)n2)c(OC)cc1N1CC(CN(C)C)C1 [Compound 39, N-(5-(4-(5-chloro-4-fluoro-2-(2-hydroxypropan-2-yl)phenylamino)-1,3,5-triazin-2-ylamino)-2-(3-((dimethylamino)methyl)azetidin-1-yl)-4-methoxyphenyl)acrylamide] | 45.6 | 29.9 | 1.8 | 13.2 | 30.1 | 71.8 | 76.6 | 5.5 | 69.9 | 26.5 | 1.74 | 1.69 | 1.47 | > 3000 | 0.9 | 1.3 | 1
3 | C=CC(=O)Nc1cc(Nc2ncnc(Nc3cc(Cl)c(F)cc3C(C)(C)O)n2)c(OC)cc1N1CC[C@@H]1CN(C)C [Compound 38, (R)-N-(5-(4-(5-chloro-4-fluoro-2-(2-hydroxypropan-2-yl)phenylamino)-1,3,5-triazin-2-ylamino)-2-(2-((dimethylamino)methyl)azetidin-1-yl)-4-methoxyphenyl)acrylamide] | 19.6 | 8 | 0.9 | 9.3 | 18.9 | 59.4 | 46.2 | 3.9 | 84.8 | 19.7 | 0.7 | 1.62 | 1.49 | > 3000 | 1.3 | 1.7 | 0.8
